Assay results taken from ChEMBL document CHEMBL4507276 (2021).

How the values were obtained:
[1] = molecular target: Mitogen-activated protein kinase kinase kinase 14 (Homo sapiens) (UniProt Q99558); conditions: Compound concentration 1000.0 nM
[2] = molecular target: Serine/threonine-protein kinase TNNI3K (Homo sapiens) (UniProt Q59H18); conditions: Compound concentration 1000.0 nM
[3] = molecular target: Vascular endothelial growth factor receptor 1 (Homo sapiens) (UniProt P17948); experiment: FLT-1(VEGFR1)_CE Cerep selectivity data (BI); conditions: Compound concentration 20.0 uM
Chain of Vascular endothelial growth factor receptor 1 (Homo sapiens) (P17948 whole entry): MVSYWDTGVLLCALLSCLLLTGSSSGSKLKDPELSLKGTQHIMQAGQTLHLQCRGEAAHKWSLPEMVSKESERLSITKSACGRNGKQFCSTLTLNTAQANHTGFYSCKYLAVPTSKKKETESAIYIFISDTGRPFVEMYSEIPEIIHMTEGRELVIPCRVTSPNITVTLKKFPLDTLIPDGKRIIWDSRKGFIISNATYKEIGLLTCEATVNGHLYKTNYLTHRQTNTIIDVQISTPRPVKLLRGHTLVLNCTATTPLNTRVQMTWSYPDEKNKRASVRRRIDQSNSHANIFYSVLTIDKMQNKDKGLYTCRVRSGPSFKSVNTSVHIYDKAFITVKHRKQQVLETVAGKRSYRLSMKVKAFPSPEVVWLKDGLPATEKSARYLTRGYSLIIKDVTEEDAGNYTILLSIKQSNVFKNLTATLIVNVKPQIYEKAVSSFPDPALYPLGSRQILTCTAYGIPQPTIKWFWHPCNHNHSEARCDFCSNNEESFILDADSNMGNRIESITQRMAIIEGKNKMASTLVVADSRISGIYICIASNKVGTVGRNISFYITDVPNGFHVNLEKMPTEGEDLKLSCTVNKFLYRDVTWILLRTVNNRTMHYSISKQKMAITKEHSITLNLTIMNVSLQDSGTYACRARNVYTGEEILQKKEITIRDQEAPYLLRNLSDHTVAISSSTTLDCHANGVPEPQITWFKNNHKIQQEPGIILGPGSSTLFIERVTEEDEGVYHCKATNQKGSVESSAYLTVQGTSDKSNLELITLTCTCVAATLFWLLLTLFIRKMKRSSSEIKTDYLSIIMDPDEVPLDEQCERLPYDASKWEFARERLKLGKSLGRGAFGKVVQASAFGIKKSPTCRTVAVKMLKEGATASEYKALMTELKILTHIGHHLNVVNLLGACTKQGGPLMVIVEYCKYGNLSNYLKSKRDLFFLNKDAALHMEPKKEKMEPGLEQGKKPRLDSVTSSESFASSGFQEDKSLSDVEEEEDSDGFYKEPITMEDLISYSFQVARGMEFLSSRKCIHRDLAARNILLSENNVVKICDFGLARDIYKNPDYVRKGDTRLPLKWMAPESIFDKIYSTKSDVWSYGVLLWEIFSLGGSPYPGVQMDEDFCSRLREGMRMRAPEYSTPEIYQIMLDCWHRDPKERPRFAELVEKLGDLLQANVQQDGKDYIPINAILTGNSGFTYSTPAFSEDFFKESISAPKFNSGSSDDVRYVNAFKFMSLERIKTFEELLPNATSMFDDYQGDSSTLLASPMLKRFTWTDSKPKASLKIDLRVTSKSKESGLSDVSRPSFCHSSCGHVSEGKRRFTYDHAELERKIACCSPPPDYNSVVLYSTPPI

[4] = molecular target: Epidermal growth factor receptor (Homo sapiens) (UniProt P00533); experiment: EGFR Invitrogen selectivity data (BI); conditions: Compound concentration 3.0 uM
[5] = molecular target: MAP kinase-activated protein kinase 2 (Homo sapiens) (UniProt P49137); experiment: MAPKAPK2 Invitrogen selectivity data (BI); conditions: Compound concentration 3.0 uM
Chain of MAP kinase-activated protein kinase 2 (Homo sapiens) (P49137 whole entry, looked up): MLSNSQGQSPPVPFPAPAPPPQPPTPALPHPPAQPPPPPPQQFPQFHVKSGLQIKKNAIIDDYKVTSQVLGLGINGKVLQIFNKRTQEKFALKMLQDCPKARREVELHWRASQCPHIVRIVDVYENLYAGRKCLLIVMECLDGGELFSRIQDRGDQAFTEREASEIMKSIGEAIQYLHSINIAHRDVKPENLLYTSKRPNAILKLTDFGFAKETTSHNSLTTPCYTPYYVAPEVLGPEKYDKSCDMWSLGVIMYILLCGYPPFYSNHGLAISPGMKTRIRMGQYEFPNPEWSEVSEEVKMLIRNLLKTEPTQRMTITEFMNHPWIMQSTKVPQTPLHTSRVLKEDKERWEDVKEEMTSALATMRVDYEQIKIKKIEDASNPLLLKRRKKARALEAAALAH

[6] = molecular target: T1, Ephrin type-B receptor 4 (Homo sapiens) (UniProt P54760); experiment: EPHB4 Invitrogen selectivity data (BI); conditions: Compound concentration 3.0 uM
T1 sequence (whole entry): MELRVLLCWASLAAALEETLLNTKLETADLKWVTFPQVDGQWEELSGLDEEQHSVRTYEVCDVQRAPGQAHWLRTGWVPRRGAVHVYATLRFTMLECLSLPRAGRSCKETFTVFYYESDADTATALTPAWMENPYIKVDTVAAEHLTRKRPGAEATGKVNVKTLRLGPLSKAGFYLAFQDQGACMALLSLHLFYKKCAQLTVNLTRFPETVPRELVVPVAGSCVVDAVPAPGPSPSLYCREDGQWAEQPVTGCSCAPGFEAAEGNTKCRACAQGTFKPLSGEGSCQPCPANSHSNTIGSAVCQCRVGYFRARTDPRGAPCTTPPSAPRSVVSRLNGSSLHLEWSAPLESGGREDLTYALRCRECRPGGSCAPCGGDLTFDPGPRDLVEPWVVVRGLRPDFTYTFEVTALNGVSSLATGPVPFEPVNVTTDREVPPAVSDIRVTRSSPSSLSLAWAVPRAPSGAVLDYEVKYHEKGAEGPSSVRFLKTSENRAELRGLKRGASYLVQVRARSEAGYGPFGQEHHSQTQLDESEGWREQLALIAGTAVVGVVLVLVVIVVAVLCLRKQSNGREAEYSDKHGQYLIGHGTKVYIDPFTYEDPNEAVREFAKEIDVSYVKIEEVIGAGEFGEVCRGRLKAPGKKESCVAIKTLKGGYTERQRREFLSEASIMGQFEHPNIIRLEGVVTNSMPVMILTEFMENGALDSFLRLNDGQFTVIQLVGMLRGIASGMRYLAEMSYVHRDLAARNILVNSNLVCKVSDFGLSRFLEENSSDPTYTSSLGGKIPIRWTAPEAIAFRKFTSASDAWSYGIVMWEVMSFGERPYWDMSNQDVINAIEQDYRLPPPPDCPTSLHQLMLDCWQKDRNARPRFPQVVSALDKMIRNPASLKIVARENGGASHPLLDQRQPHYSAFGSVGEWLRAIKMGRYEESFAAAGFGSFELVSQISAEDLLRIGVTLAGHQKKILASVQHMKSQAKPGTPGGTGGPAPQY

[7] = molecular target: PI3-kinase p110-delta/p85-alpha (Homo sapiens) (UniProt P27986+O00329); experiment: PIK3CDPIK3R1 Invitrogen selectivity data (BI); type: protein-complex assay; conditions: Compound concentration 3.0 uM
[8] = molecular target: T2, Mitogen-activated protein kinase kinase kinase 3 (Homo sapiens) (UniProt Q99759); experiment: MAP3K3 Invitrogen selectivity data (BI); conditions: Compound concentration 3.0 uM
T2 sequence (whole entry): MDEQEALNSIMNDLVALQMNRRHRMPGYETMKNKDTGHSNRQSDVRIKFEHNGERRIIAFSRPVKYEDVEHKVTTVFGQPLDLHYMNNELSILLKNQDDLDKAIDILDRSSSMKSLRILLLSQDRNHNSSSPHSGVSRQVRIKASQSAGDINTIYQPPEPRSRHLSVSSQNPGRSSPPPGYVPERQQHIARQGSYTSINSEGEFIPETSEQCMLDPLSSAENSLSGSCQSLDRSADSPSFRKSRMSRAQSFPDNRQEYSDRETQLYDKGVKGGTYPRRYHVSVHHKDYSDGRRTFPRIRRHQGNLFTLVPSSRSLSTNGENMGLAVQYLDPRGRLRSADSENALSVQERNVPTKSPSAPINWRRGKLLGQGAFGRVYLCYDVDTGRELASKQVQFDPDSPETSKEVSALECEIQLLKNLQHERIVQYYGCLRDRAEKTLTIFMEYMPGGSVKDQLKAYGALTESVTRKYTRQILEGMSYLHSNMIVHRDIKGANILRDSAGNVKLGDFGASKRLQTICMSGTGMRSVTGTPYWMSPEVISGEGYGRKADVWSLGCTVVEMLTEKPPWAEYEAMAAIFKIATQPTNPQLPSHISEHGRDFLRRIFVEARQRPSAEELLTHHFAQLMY

[9] = molecular target: Melanocortin receptor 4 (Homo sapiens) (UniProt P32245); experiment: MC4/HU Cerep selectivity data (BI); conditions: Compound concentration 20.0 uM
Chain of Melanocortin receptor 4 (Homo sapiens) (P32245 whole entry): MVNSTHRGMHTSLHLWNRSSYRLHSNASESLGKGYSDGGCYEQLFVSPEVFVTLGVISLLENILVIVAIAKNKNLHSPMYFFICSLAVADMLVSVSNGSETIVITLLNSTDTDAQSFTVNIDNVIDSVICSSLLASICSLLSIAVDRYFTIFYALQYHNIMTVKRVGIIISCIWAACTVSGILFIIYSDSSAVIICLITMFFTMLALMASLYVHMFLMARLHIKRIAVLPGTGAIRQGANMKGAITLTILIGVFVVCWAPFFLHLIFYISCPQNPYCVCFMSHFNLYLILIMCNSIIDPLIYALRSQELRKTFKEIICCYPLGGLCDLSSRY

[10] = molecular target: Androgen receptor (Homo sapiens) (UniProt P10275); experiment: ANDROGEN/H Cerep selectivity data (BI); conditions: Compound concentration 20.0 uM
Chain of Androgen receptor (Homo sapiens) (P10275 whole entry): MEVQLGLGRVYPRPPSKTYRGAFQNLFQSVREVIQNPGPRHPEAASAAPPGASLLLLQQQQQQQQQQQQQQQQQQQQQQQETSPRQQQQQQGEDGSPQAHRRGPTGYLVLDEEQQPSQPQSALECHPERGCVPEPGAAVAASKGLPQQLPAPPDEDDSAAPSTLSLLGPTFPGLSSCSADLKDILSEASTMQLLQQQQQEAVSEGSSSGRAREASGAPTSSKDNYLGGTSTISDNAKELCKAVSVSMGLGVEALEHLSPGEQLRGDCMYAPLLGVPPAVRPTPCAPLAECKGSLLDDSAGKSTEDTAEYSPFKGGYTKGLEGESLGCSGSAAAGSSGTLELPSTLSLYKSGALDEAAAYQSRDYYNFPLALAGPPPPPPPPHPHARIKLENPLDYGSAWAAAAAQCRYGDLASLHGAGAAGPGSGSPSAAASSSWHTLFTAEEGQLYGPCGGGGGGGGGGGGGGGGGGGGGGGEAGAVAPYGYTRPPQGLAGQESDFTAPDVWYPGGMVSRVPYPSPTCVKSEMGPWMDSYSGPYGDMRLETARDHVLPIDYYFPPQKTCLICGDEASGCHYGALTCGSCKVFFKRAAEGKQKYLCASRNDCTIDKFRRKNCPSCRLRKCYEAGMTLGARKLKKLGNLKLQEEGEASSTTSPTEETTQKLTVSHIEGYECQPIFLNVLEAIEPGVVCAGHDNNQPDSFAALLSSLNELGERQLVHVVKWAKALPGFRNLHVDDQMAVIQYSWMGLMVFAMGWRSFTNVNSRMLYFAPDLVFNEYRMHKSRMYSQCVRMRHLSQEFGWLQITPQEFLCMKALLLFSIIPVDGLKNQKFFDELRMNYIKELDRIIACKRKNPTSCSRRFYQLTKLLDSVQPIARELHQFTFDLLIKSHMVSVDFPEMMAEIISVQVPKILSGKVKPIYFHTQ

[11] = molecular target: Prostaglandin E2 receptor EP2 subtype (Homo sapiens) (UniProt P43116); experiment: EP2(H) Cerep selectivity data (BI); conditions: filed as agonist, Compound concentration 20.0 uM
[12] = molecular target: Tyrosine-protein kinase SYK (Homo sapiens) (UniProt P43405); experiment: SYK Invitrogen selectivity data (BI); conditions: Compound concentration 3.0 uM
[13] = molecular target: ATP-sensitive inward rectifier potassium channel 1 isoform X1 (Mesocricetus auratus) (UniProt A0A1U8CU73); experiment: K+/KATP/HA Eurofins-Panlabs selectivity data (BI); conditions: Compound concentration 10.0 uM
[14] = tested on: Epidermal growth factor receptor (Homo sapiens), P00533 [L861Q]; experiment: EGFR L861Q Invitrogen selectivity data (BI); conditions: Compound concentration 3.0 uM
[15] = molecular target: Sphingosine kinase 1 (Homo sapiens) (UniProt Q9NYA1); experiment: SPHK1 Invitrogen selectivity data (BI); conditions: Compound concentration 3.0 uM
Chain of Sphingosine kinase 1 (Homo sapiens) (Q9NYA1 whole entry): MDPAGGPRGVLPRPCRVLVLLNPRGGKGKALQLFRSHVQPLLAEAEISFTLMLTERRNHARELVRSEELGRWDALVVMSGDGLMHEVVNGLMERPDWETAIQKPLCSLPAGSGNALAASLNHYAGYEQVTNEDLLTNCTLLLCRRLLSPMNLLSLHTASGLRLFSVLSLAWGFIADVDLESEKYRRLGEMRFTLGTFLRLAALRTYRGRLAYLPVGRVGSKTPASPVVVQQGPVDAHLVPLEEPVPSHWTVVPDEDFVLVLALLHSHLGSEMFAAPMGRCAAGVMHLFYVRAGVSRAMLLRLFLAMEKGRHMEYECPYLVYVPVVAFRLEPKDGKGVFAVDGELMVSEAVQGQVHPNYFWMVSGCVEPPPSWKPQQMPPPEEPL

[16] = molecular target: Caspase-3 (Homo sapiens) (UniProt P42574); experiment: CASPASE-3 Cerep selectivity data (BI); conditions: Compound concentration 20.0 uM
Chain of Caspase-3 (Homo sapiens) (P42574 29-175 limits assumed): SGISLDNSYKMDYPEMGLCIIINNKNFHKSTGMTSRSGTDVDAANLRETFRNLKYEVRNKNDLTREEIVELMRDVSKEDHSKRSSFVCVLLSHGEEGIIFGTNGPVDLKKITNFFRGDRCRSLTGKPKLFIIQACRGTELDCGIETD
Chain of Caspase-3 (Homo sapiens) (P42574 176-277 limits assumed): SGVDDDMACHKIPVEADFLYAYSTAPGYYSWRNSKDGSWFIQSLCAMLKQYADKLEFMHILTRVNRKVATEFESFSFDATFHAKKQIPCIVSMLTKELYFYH

[17] = molecular target: Platelet-activating factor receptor (Homo sapiens) (UniProt P25105); experiment: PAF/H Eurofins-Panlabs selectivity data (BI); conditions: Compound concentration 10.0 uM
Chain of Platelet-activating factor receptor (Homo sapiens) (P25105 whole entry): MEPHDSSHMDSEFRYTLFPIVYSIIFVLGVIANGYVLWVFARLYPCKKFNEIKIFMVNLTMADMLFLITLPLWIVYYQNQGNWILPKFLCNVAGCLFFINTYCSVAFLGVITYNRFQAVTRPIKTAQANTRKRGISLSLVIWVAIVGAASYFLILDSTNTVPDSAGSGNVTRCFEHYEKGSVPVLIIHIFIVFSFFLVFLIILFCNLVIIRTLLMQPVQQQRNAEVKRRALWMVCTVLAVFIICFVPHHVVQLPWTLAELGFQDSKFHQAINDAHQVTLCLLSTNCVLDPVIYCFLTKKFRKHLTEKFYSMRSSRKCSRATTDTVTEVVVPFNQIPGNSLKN

[18] = molecular target: Glutamate NMDA receptor (Rattus norvegicus) (UniProt P35439+Q00959+Q00960+Q00961+Q62645+Q8VHN2+Q9R1M7); experiment: PCP/R Cerep selectivity data (BI); type: protein-complex assay; conditions: Compound concentration 20.0 uM

Chain of Mitogen-activated protein kinase kinase kinase 14 (Homo sapiens) (Q99558 whole entry, looked up): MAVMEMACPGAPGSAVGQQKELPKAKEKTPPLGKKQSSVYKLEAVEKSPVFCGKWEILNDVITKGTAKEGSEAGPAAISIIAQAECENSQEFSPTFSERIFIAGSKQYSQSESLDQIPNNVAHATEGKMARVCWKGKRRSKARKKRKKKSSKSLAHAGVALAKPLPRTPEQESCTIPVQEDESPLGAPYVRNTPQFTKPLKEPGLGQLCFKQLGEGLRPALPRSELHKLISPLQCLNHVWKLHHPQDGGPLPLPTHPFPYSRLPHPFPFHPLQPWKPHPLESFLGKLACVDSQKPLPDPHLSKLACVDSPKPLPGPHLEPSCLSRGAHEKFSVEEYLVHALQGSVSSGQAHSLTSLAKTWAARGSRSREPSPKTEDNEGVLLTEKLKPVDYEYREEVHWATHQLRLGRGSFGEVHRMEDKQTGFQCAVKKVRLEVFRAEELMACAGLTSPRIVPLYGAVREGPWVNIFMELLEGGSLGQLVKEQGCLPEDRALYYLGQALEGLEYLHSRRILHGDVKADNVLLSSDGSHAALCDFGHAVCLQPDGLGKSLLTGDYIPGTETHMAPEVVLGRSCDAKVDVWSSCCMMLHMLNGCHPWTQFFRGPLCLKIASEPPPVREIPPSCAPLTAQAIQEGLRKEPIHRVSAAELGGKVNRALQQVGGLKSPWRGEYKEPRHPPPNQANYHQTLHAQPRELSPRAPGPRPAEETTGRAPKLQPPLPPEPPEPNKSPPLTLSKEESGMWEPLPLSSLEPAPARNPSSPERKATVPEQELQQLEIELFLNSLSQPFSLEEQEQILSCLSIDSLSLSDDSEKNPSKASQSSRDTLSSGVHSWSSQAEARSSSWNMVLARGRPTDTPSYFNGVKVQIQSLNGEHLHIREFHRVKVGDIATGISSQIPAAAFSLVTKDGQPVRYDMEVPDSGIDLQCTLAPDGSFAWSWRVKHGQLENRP

Row | SMILES | residual activity [1] [%] | residual activity [2] [%] | residual activity [3] [%] | residual activity [4] [%] | residual activity [5] [%] | residual activity [6] [%] | residual activity [7] [%] | residual activity [8] [%] | residual activity [9] [%] | residual activity [10] [%] | residual activity [11] [%] | residual activity [12] [%] | residual activity [13] [%] | residual activity [14] [%] | residual activity [15] [%] | residual activity [16] [%] | residual activity [17] [%] | residual activity [18] [%]
1 | CN(C)C(=O)Cn1cc(-c2nc(C3(c4ccc(-c5cnc(N)nc5)cc4)CC3)no2)cn1 [BI 0153] | 83 | 100 |  |  |  |  |  |  |  |  |  |  |  |  |  |  |  | 
2 | CN(C)C(=O)Cn1cc(-c2nc([C@@](C)(c3ccc(-c4cnc(N)nc4)cc3)C3CC3)no2)cn1 [BI 665915] |  |  | 36 | 104 | 96.5 | 101 | 99.5 | 101 | 109 | 102 | 97 | 90 | 97 | 98 | 95.5 | 98 | 71 | 100
